In patent US20250122211A1, “NITROGEN-CONTAINING TETRACYCLIC COMPOUND, PREPARATION METHOD THEREFOR, AND MEDICAL USE THEREOF” (Jiangsu Hengrui Pharmaceuticals Co., Ltd., priority 2021, published 2025):
Read-outs that look alike come from different tables or passages of the source.

Tests used:
Assay type in all cases: cell-based
[1] = test system: H358 cells; experiment: H358 proliferation assay (CellTiter-Glo); settings: 120 h incubation, read-out: IC50 (nM), inhibitory activity against H358 cell proliferation
Method: The inhibitory activity of the compounds of the present disclosure against H358 cell proliferation was measured. Below is a brief description of the experimental method: H358 cells (ATCC, CRL-5807) were cultured in RPMI1640 medium (Hyclone, SH30809.01) containing 10% fetal bovine serum (Corning, 35-076-CV) (i.e., complete medium). On the first day of the experiment, H358 cells were seeded into a 96-well plate at a density of 1200 cells/well using complete medium, with 100 μL of cell suspension per well, and the plate was incubated overnight in a 37° C., 5% CO2 cell incubator. On the second day, the test compounds, prepared in complete medium and serially diluted, were added at 10 μL/well. The final concentrations of the compounds were 9 concentration points obtained by a 5-fold serial dilution from 10 μM. A blank control containing 0.5% DMSO was set up. The plate was incubated for 120 h in a 37° C., 5% CO2 cell incubator. On the seventh day, the 96-well cell plate was removed from the incubator, and CellTiter-Glo® Luminescent Cell Viability Assay (Promega, G7573) was added at 50 μL/well. After 10 min of room temperature incubation, luminescence signals were measured using a multifunctional microplate reader (PerkinElmer, EnVision® 2105). The IC50 values for the inhibitory activity of the compounds were calculated using Graphpad Prism software.

[2] = test system: MIA PaCa-2 cells; experiment: MIA PaCa-2 cell proliferation assay (CellTiter-Glo); settings: 72 h incubation, read-out: IC50 (nM), inhibitory activity against MIA PaCa-2 cell proliferation
Method: The inhibitory activity of the compounds of the present disclosure against MIA PaCa-2 cell proliferation was measured. Below is a brief description of the experimental method:
MIA PaCa-2 cells (ATCC, CRL-1420) were cultured in DMEM/HIGH GLUCOSE medium (GE, SH30243.01) containing 10% fetal bovine serum (Corning, 35-076-CV) and 2.5% horse serum (Beyotime Biological Tech., C0262) (i.e., complete medium). On the first day of the experiment, MIA PaCa-2 cells were seeded into a 96-well plate at a density of 500 cells/well using complete medium, with 90 µL of cell suspension per well, and the plate was incubated overnight in a 37° C., 5% CO2 cell incubator. On the second day, the test compounds, prepared in complete medium and serially diluted, were added at 10 μL/well. The final concentrations of the compounds were 9 concentration points obtained by a 5-fold serial dilution from 10 μM. A blank control containing 0.5% DMSO was set up. The plate was incubated for 72 h in a 37° C., 5% CO2 cell incubator. On the fifth day, the 96-well cell plate was removed from the incubator, and CellTiter-Glo® Luminescent Cell Viability Assay (Promega, G7573) was added at 50 μL/well. After 10 min of room temperature incubation, luminescence signals were measured using a multifunctional microplate reader (PerkinElmer, EnVision2015). The IC50 values for the inhibitory activity of the compounds were calculated using Graphpad Prism software.

[3] = test system: ERK phosphorylation in H358 cells; experiment: H358 cell ERK phosphorylation inhibition assay (HTRF pERK/total ERK); settings: 3 h incubation, ratio of pERK/total ERK, read-out: IC50 (nM), inhibitory effects on ERK phosphorylation in H358 cells
Method: The inhibitory effects of the compounds of the present disclosure on ERK phosphorylation in H358 cells were measured. Below is a brief description of the experimental method: H358 cells (ATCC, CRL-5807) were cultured in RPMI1640 medium (Hyclone, SH30809.01) containing 10% fetal bovine serum (Corning, 35-076-CV) (i.e., complete medium). On the first day of the experiment, H358 cells were seeded into a 96-well plate at a density of 25,000 cells/well using complete medium, with 190 μL of cell suspension per well, and the plate was incubated overnight in a 37° C., 5% CO2 cell incubator. On the second day, the test compounds, prepared in complete medium and serially diluted, were added at 10 μL/well. The final concentrations of the compounds were 9 concentration points obtained by a 6-fold serial dilution from 10 μM. A blank control containing 0.5% DMSO was set up. The plate was incubated for 3 h in a 37° C., 5% CO2 cell incubator. After 3 h, the 96-well cell culture plate was removed from the incubator, and the culture medium was pipetted off. PBS (Shanghai BasalMedia Technologies Co., Ltd., B320) was added at 200 μL/well for a single wash. PBS was pipetted off, and lysis buffer (Cisbio, 64KL1FDF) containing a blocking agent (Cisbio, 64KB1AAC) was added at 50 μL/well. The plate was incubated on a shaker for 30 min at room temperature to lyse the cells. After lysis, the lysates were well mixed by pipetting, and 16 μL of lysate was transferred from each well to two HTRF 96-well assay plates (Cisbio, 66PL96100). Subsequently, 4 μL of a premixed phospho-ERK1/2 antibody solution (Cisbio, 64AERPEG) or 4 μL of a premixed total-ERK1/2 antibody solution (Cisbio, 64NRKPEG) was added to each of the plates. The plates were sealed with a plate sealer film, centrifuged for 1 min in a microplate centrifuge, and incubated overnight at room temperature in the dark. On the third day, fluorescence values at an excitation wavelength of 337 nm and emission wavelengths of 665 nm and 620 nm were measured using a PHERAstar multifunctional microplate reader (BMG Labtech, PHERAstar FS). The IC50 values for the inhibitory activity of the compounds were calculated using Graphpad Prism software, based on the compound concentration and the ratio of pERK/total ERK.

Compound | IC50 [1] [nM] | IC50 [2] [nM] | IC50 [3] [nM] | IC50 ([1]; Homo sapiens, NCI-H358, 120 h) [nM] | IC50 ([2]; Homo sapiens, MIA PaCa-2, 72 h) [nM] | IC50 ([3]; Homo sapiens, NCI-H358, 3 h) [nM]
C=CC(=O)N1CCN2C(=O)c3cc(F)c(-c4ccc(F)c5sc(N)c(C#N)c45)c4c(Cl)nn(c34)CC[C@H]2C1 (atropisomer, axis not shown) [Example 7-P2, (S)-4-((S)-10-Acryloyl-4-chloro-2-fluoro-14-oxo-8,8a,9,10,11,12-hexahydro-7H,14H-pyrazino[1′,2′:5,6][1,5]diazocino[3,2,1-hi]indazol-3-yl)-2-amino-7-fluorobenzo[b]thiophene-3-carbonitrile] |  |  |  | 0.74 | 0.28 | 0.13
C=CC(=O)N1CCN2C(=O)c3cc(F)c(-c4ccc(F)c5sc(N)c(C#N)c45)c4c(F)nn(c34)CC[C@H]2C1 (atropisomer, axis not shown) [Example 8-P2, (S)-4-((S)-10-Acryloyl-2,4-difluoro-14-oxo-8,8a,9,10,11,12-hexahydro-7H,14H-pyrazino[1′,2′:5][1,5]diazocino[3,2,1-hi]indazol-3-yl)-2-amino-7-fluorobenzo[b]thiophene-3-carbonitrile] |  |  |  | 0.84 | 0.19 | 0.16
C=CC(=O)N1CCN2C(=O)c3cc(F)c(-c4ccc(F)c5sc(N)c(C#N)c45)c4c(C)nn(c34)CC[C@H]2C1 (atropisomer, axis not shown) [Example 9-P1, (R)-4-((S)-10-Acryloyl-2-fluoro-4-methyl-14-oxo-8,8a,9,10,11,12-hexahydro-7H,14H-pyrazino[1′,2′:5,6][1,5]diazocino[3,2,1-hi]indazol-3-yl)-2-amino-7-fluorobenzo[b]thiophene-3-carbonitrile] |  |  | 32.5 |  |  | 
C=CC(=O)N1CCN2C(=O)c3cc(F)c(-c4ccc(F)c5sc(N)nc45)c4ccn(c34)CC[C@H]2C1 [Example 3, (8aS)-10-Acryloyl-3-(-2-amino-7-fluorobenzo[d]thiazol-4-yl)-2-fluoro-8,8a,9,10,11,12-hexahydro-7H,14H-pyrazino[1′,2′:5,6][1,5]diazocino[3,2,1-hi]indol-14-one] |  |  |  |  |  | 23.7
C=C(F)C(=O)N1CCN2C(=O)c3cc(F)c(-c4ccc(F)c5sc(N)c(C#N)c45)c4ccn(c34)CC[C@H]2C1 [Example 5, 2-Amino-7-fluoro-4-((S)-2-fluoro-10-(2-fluoroacryloyl)-14-oxo-8,8a,9,10,11,12-hexahydro-7H,14H-pyrazino[1′,2′:5,6][1,5]diazocino[3,2,1-hi]indol-3-yl)benzo[b]thiophene-3-carbonitrile] |  |  |  |  |  | 36.2

The next lines start with the values.

IC50 [1] [nM] | IC50 [2] [nM] | IC50 [3] [nM] | IC50 ([1]; Homo sapiens, NCI-H358, 120 h) [nM] | IC50 ([2]; Homo sapiens, MIA PaCa-2, 72 h) [nM] | IC50 ([3]; Homo sapiens, NCI-H358, 3 h) [nM] | Compound
12 | 2.79 | 1.33 |  |  |  | C=CC(=O)N1CCN2C(=O)c3cc(F)c(-c4ccc(F)c5sc(N)c(C#N)c45)c4cnn(c34)CC[C@H]2C1 (atropisomer, axis not shown) [Example 1-P1, (R)-4-((S)-10-Acryloyl-2-fluoro-14-oxo-8,8a,9,10,11,12-hexahydro-7H,14H-pyrazino[1′,2′:5,6][1,5]diazocino[3,2,1-hi]indazol-3-yl)-2-amino-7-fluorobenzo[b]thiophene-3-carbonitrile]
0.93 | 0.4 | 0.07 |  |  |  | C=CC(=O)N1CCN2C(=O)c3cc(F)c(-c4ccc(F)c5sc(N)c(C#N)c45)c4cnn(c34)CC[C@H]2C1 (atropisomer, axis not shown) [Example 1-P2, (S)-4-((S)-10-Acryloyl-2-fluoro-14-oxo-8,8a,9,10,11,12-hexahydro-7H,14H-pyrazino[1′,2′:5,6][1,5]diazocino[3,2,1-hi]indazol-3-yl)-2-amino-7-fluorobenzo[b]thiophene-3-carbonitrile]
9.75 | 13.9 | 1.45 |  |  |  | C=C(F)C(=O)N1CCN2C(=O)c3cc(F)c(-c4ccc(F)c5sc(N)c(C#N)c45)c4cnn(c34)CC[C@H]2C1 (atropisomer, axis not shown) [Example 6-P1, (R)-2-Amino-7-fluoro-4-((S)-2-fluoro-10-(2-fluoroacryloyl)-14-oxo-8,8a,9,10,11,12-hexahydro-7H,14H-pyrazino[1′,2′:5,6][1,5]diazocino[3,2,1-hi]indazol-3-yl)benzo[b]thiophene-3-carbonitrile]
 | 5.39 | 0.35 | 5.73 |  |  | C=C(F)C(=O)N1CCN2C(=O)c3cc(F)c(-c4ccc(F)c5sc(N)c(C#N)c45)c4cnn(c34)CC[C@H]2C1 (atropisomer, axis not shown) [Example 6-P2, (S)-2-Amino-7-fluoro-4-((S)-2-fluoro-10-(2-fluoroacryloyl)-14-oxo-8,8a,9,10,11,12-hexahydro-7H,14H-pyrazino[1′,2′:5,6][1,5]diazocino[3,2,1-hi]indazol-3-yl)benzo[b]thiophene-3-carbonitrile]
 |  | 0.06 | 0.52 | 0.37 |  | C=CC(=O)N1CCN2C(=O)c3cc(F)c(-c4ccc(F)c5sc(N)c(C#N)c45)c4c(C)nn(c34)CC[C@H]2C1 (atropisomer, axis not shown) [Example 9-P2, (S)-4-((S)-10-Acryloyl-2-fluoro-4-methyl-14-oxo-8,8a,9,10,11,12-hexahydro-7H,14H-pyrazino[1′,2′:5,6][1,5]diazocino[3,2,1-hi]indazol-3-yl)-2-amino-7-fluorobenzo[b]thiophene-3-carbonitrile]
 |  |  |  | 35.3 | 11.3 | C=CC(=O)N1CCN2C(=O)c3cc(F)c(-c4ccc(F)c5sc(N)c(C#N)c45)c4cnn(c34)CC[C@@H]2C1 (atropisomer, axis not shown) [Example 12-P2, (S)-4-((R)-10-Acryloyl-2-fluoro-14-oxo-8,8a,9,10,11,12-hexahydro-7H,14H-pyrazino[1′,2′:5,6][1,5]diazocino[3,2,1-hi]indazol-3-yl)-2-amino-7-fluorobenzo[b]thiophene-3-carbonitrile]
 |  |  |  | 39.6 | 1.35 | C=CC(=O)N1CCN2C(=O)c3cc(F)c(-c4ccc(F)c5sc(N)c(C#N)c45)c4cnn(c34)C[C@H]2C1 [Example 14, 4-((R)-10-Acryloyl-4-fluoro-6-oxo-8,9,10,11,11a,12-hexahydro-6H-pyrazino[2′,1′:3,4][1,4]diazepino[6,7,1-hi]indazol-3-yl)-2-amino-7-fluorobenzo[b]thiophene-3-carbonitrile]
